Results published in PubChem BioAssay (NCI).
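Growth conditions: 96-well plates. Treatment: test compound, 48 hours, 5 concentrations. Analysis: linear interpolation between bracketing concentrations; unreached endpoints set to highest concentration. At the TGI there is no net growth.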

Columns and labels:
Test in all cases: NCI tumour cell line growth inhibition, 48 h
[1] = system: M19-MEL melanoma
[2] = system: DMS 273 small cell lung
[3] = system: DMS 114 small cell lung
[4] = system: HOP-18 NSCLC
[5] = system: DLD-1 colon
[6] = system: KM20L2 colon
[7] = system: LXFL 529 NSCLC
[8] = system: SNB-78 CNS
[9] = system: XF 498 CNS
[10] = system: RXF-631 renal

For `COc1ccc(-c2nc3c(nc2-c2ccc(OC)cc2)N(C)S(=O)(=O)N=C3N)cc1`, the TGI [1] was greater than 100 µM, the TGI [2] was greater than 100 µM and the TGI [3] was 72.7 µM. For the same compound, the TGI [4] was greater than 100 µM, the TGI [5] was greater than 100 µM and the TGI [6] was greater than 100 µM. The TGI [7] was greater than 100 µM.

Compound `CCN(CC)CCNC(=O)c1nn(-c2ccc(Cl)cc2)c2c1CCc1cc(OC)ccc1-2` has a TGI [1] of 7.11 µM, a TGI [2] of 5.98 µM and a TGI [3] of 6.68 µM. It also gave a TGI [4] of 28.7 µM, a TGI [5] of 14.2 µM and a TGI [8] of 24.2 µM. It also gave a TGI [6] of 3.32 µM, a TGI [9] of 17.6 µM and a TGI [7] of 16.4 µM. For the same compound, the TGI [10] was 3.16 µM.

`CC1=C/C(=C2/N=C(N(C)C)SS2)C(C)=N1` showed a TGI [1] greater than 100 µM, a TGI [2] greater than 100 µM and a TGI [3] greater than 100 µM. It also gave a TGI [4] greater than 100 µM, a TGI [5] greater than 100 µM and a TGI [8] greater than 100 µM. The TGI [6] was greater than 100 µM, the TGI [9] was greater than 100 µM and the TGI [7] was greater than 100 µM.

`COc1cc2cc3c4c(cc(OC)c(OC)c4c2cc1OC)CCN3C(=O)CCC(=O)O` showed a TGI [2] greater than 100 µM, a TGI [3] greater than 100 µM and a TGI [5] greater than 100 µM. For the same compound, the TGI [8] was greater than 100 µM, the TGI [6] was greater than 100 µM and the TGI [7] was greater than 100 µM.

`CCN(CC)CC(=O)Nc1ccc2c(c1)C(=O)c1ccc(NC(=O)CN(CC)CC)cc1C2=O` was tested, and the TGI [1] was greater than 100 µM, the TGI [2] was greater than 100 µM and the TGI [3] was 37.4 µM. It also gave a TGI [5] greater than 100 µM, a TGI [8] greater than 100 µM and a TGI [6] greater than 100 µM. The TGI [7] was 49 µM.

Work on `CN=C(NC)N(C)c1nc(=[N+](C)C)ss1` yielded a TGI [2] greater than 100 µM, a TGI [8] greater than 100 µM and a TGI [7] greater than 100 µM.
